From patent US6849578B1, “Selective herbicides based on 2,6-disubstituted pyridine derivatives” (Bayer Aktiengesellschaft, priority 1999, dated 2005) come the findings set out here.

What all share (assay type): in vivo
One assay deals with Avenua. Kind of assay: Post-emergence greenhouse test, % damage. Particulars: after about 3 weeks. The source says: (§1) The expected activity for a given combination of two herbicides can be calculated as follows (cf. COLBY, S. R.: “Calculating synergistic and antagonistic responses of herbicide combinations”, Weeds 15, pages 20-22, 1967): • If X=% damage by herbicide A (active compound of the formula (I) at an application rate of p kg/ha • and Y=% damage by herbicide B (active compound of the formula II) at an application rate of q kg/ha • and E=the expected damage of the herbicides A and B at application rates of p and q kg/ha, • then E=X+Y−(X*Y/100).
(§2) Customary formulations of the active compounds in question were used. Propoxycarbazone-sodium was used as 70 WG, flufenacet as 60 WG and picolinafen as 75 WG formulation. From the active compounds, an aqueous spray liquor containing 0.1% of the additive Renex-36 was prepared.
(§3) Test plants are grown in a greenhouse under controlled conditions (temperature and light conditions). When the plants have reached a height of 5 to 15 cm, they are sprayed with the test solution. The concentration of the spray liquor is chosen such that the particular amounts of active compound desired are applied in 500 l of water/ha.
(§4) After the spray treatment, the plant containers are stored in a greenhouse at constant light and temperature conditions.
(§5) After about 3 weeks, the degree of damage to the crop plants is rated in % damage in comparison to the development of the untreated control.
(§6) The figures denote: • 0%=no damage (like untreated control) • 100%=total destruction/damage

Another assay has as its system Cassia. Nature of the assay: Post-emergence greenhouse test, % damage. Particulars: Table A-4, after about 3 weeks.
Description: as §1, §2, §3, §4, §5, §6

A further assay has as its system Digitaria. Kind of assay: Post-emergence greenhouse test, % damage. Particulars: Table A-2, after about 3 weeks.
Description: as §1, §2, §3, §4, §5, §6

A further assay relates to Echinochloa. Nature of the assay: Post-emergence greenhouse test, % damage. Particulars: Table A-3, after about 3 weeks.
Description: as §1, §2, §3, §4, §5, §6

The next assay relates to Ipomoea. Nature of the assay: Post-emergence greenhouse test, % damage. Particulars: Table A-5, after about 3 weeks.
Description: as §1, §2, §3, §4, §5, §6

A further assay concerns Viola. Kind of assay: Post-emergence greenhouse test, % damage. Particulars: Table A-6, after about 3 weeks.
Description: as §1, §2, §3, §4, §5, §6

A further assay has as its system Galium. Kind of assay: Outdoor trials in cereal, post-emergence spring, herbicidal activity. Particulars: about 8-10 weeks after application.
Description: as §1
(§7) To examine a possible synergism, the compounds picolinafen and propoxycarbazone-sodium were tested under outdoor conditions in cereal against economically important weed grasses. The small-plot experiments were conducted on areas used for agricultural cultivation.
(§8) The active compounds were applied in spring by the post-emergence method and over the entire area, using spray application with a medium droplet size. To prepare an advantageous preparation of active compound, the active compounds were formulated as 70 WG (70% w/w water-dispersible powder) or 75 WG (75% w/w water-dispersible powder) and suspended in water. The spray liquor was then applied in a water application rate customarily used in practice.
(§9) About 8-10 weeks after the application of the spray liquor, the herbicidal activity was scored visually. The figures denote: • 0%=no herbicidal effect, • 100%=total destruction of the crop or the weeds.

The test system of the next assay is Lactuca. The description is as above. Particulars: about 8-10 weeks after application.
Description: as §1, §7, §8, §9

Another assay has as its system Legousia. The description is as above. Particulars: about 8-10 weeks after application.
Description: as §1, §7, §8, §9

The next assay relates to Matricaria ch. The assay is described as above. Particulars: about 8-10 weeks after application.
Description: as §1, §7, §8, §9

For another assay, the system named is Matricaria in. The assay is described as above. Particulars: about 8-10 weeks after application.
Description: as §1, §7, §8, §9

Another assay deals with Stellaria. The assay is described as above. Particulars: about 8-10 weeks after application.
Description: as §1, §7, §8, §9

On to `O=C(Nc1ccc(F)cc1)c1cccc(Oc2cccc(C(F)(F)F)c2)n1` [picolinafen, N-(4-fluorophenyl)-6-[3-(trifluoromethyl)phenoxy]-2-pyridinecarboxamide], for which the Avenua observed in the assay on Avenua (8 g of ai/ha, Table A-1) is 0%; in the assay on Avenua (15 g of ai/ha, Table A-7) it was 10%; in the assay with Avenua (15 g of ai/ha, Table A-8) it was 0%; with Avenua (15 g of ai/ha, Table A-9), 70%; with Avenua (30 g of ai/ha, Table A-1), 20%; in the assay with Avenua (30 g of ai/ha, Table A-7) it was 20%. Also, the Avenua observed with Avenua (30 g of ai/ha, Table A-8) came out at 20%; in the assay on Avenua (30 g of ai/ha, Table A-9), 70%. For the same compound, the Cassia observed in the assay on Cassia (30 g of ai/ha) came out at 40%. In addition, the Digitaria observed in the assay on Digitaria (30 g of ai/ha) is given as 50%. Further, the Echinochloa observed in the assay with Echinochloa (8 g of ai/ha) was 10%. The Ipomoea observed in the assay with Ipomoea (8 g of ai/ha), in the assay on Ipomoea (15 g of ai/ha) and with Ipomoea (30 g of ai/ha) was 70% throughout. The Viola observed in the assay with Viola (8 g of ai/ha) turned out to be 90%. In addition, in the assay on Galium (75 g of ai/ha), the Galium observed came to 30%. Also, the Lactuca observed in the assay with Lactuca (75 g of ai/ha) is listed as 0%. Moreover, the Legousia observed in the assay on Legousia (75 g of ai/ha) was determined as 0%. Further, the “Matricaria ch. observed 1st location” value in the assay on Matricaria ch. (75 g of ai/ha) was determined as 0%. Further, the “Matricaria ch. observed 2nd location” value in the assay with Matricaria ch. (75 g of ai/ha) was found to be 0%. In the assay with Matricaria in. (75 g of ai/ha), the Matricaria in. observed is 45%. The Stellaria observed in the assay with Stellaria (75 g of ai/ha) came out at 20%.

Consider `CC(C)N(C(=O)COc1nnc(C(F)(F)F)s1)c1ccc(F)cc1` [flufenacet, N-isopropyl-N-(4-fluorophenyl)-(5-trifluoromethyl-1,3,4-thiadiazol-2-yl-oxy)-acetamide], for which the Avenua observed is on record as 10% with Avenua (30 g of ai/ha, Table A-1) and 10% in the assay on Avenua (60 g of ai/ha, Table A-1). For the same compound, the Cassia observed with Cassia (125 g of ai/ha) is given as 0%. Also, the Digitaria observed with Digitaria (60 g of ai/ha) was 0%; with Digitaria (125 g of ai/ha) it was 10%. Also, the Echinochloa observed with Echinochloa (60 g of ai/ha) stood at 60%. In addition, the Ipomoea observed in the assay with Ipomoea (60 g of ai/ha) and in the assay on Ipomoea (125 g of ai/ha) was 30% in each case. The Viola observed in the assay on Viola (60 g of ai/ha) worked out at 0%.

In the case of `CCCOc1nn(C(=O)NS(=O)(=O)c2ccccc2C(=O)OC)c(=O)n1C.[Na]` [propoxycarbazone-sodium, methyl 2-[[[(4,5-dihydro-4-methyl-5-oxo-3-propoxy-1H-1,2,4-triazol-1-yl)carbonyl]-amino]-sulphonyl]-benzoate sodium salt], the Avenua observed worked out at 50% in the assay on Avenua (15 g of ai/ha, Table A-7); 0% in the assay with Avenua (15 g of ai/ha, Table A-8); 0% in the assay with Avenua (15 g of ai/ha, Table A-9); 50% in the assay on Avenua (30 g of ai/ha, Table A-7); 20% in the assay on Avenua (30 g of ai/ha, Table A-8); 0% in the assay on Avenua (30 g of ai/ha, Table A-9). For the same compound, the Avenua observed in the assay with Avenua (60 g of ai/ha, Table A-7) worked out at 60%; in the assay with Avenua (60 g of ai/ha, Table A-9), 0%. Also, the Galium observed in the assay on Galium (42 g of ai/ha) was 0%. In the assay with Lactuca (42 g of ai/ha), the Lactuca observed is listed as 10%. For the same compound, in the assay on Legousia (42 g of ai/ha), the Legousia observed is recorded as 0%. In the assay on Matricaria ch. (42 g of ai/ha), the “Matricaria ch. observed 1st location” value amounted to 60%. Also, the “Matricaria ch. observed 2nd location” value with Matricaria ch. (42 g of ai/ha) worked out at 10%. Further, the Matricaria in. observed with Matricaria in. (42 g of ai/ha) is on record as 75%. Further, the Stellaria observed with Stellaria (42 g of ai/ha) came out at 30%.
